The values that follow come from article PMC5632533, “Mechanisms of action and in vivo antibacterial efficacy assessment of five novel hybrid peptides derived from Indolicidin and Ranalexin against Streptococcus pneumoniae” (PeerJ, 2017).

The subject of experiment [1] is S. pneumoniae genomic DNA. Nature of the experiment: Gel retardation assay (DNA retardation). Type of experiment: binding, Streptococcus pneumoniae. Conditions: 250 ng genomic DNA; 0.24–500 µg/ml tested; 10 min, room temperature; 1% agarose gel. Here is the method: This assay was carried out as described previously, with minor modifications ([Li et al., 2013]). S. pneumoniae were grown overnight on Columbia agar with 5% sheep blood. A few bacterial colonies were transferred into a 1.5 ml eppendorf tube containing phosphate buffered saline (PBS). The bacterial cells were centrifuged, PBS was discarded and 50 µl of TE buffer containing 0.08 g/ml of lysozyme and 150 U/ml of mutanolysin was added to the cells. Genomic DNA was isolated from pneumococcal cells using DNeasy Blood & Tissue Kit (Qiagen, Hilden, Germany), following the manufacturer’s giudlines. The optical density ratio of 260 nm and 280 nm (OD260∕OD280 = 1.83) was used to measure the purity of the DNA. Genomic DNA (250 ng) was incubated with hybrid peptides at various concentrations (0.24–500 µg/ml) in 12 μl at room temperature for 10 min. 2 μl of loading buffer were added to the mixture and the migration of DNA through 1% agarose gel was evaluated by electrophoresis in 1 × Tris borate–EDTA buffer (45 mM Tris–borate and 1 mM EDTA at pH 8.0) and spotted by the fluorescence of gel stain (Gel Red, BIOTIUM, Fremont, CA, USA). The natural peptide indolicidin was used as positive controls, ceftriaxone and erythromycin were used as negative controls.

In experiment [2] the test system is S. pneumoniae (highly virulent strain). The experiment can be described thus: In vivo antipneumococcal activity, pneumococcal bacteremia (lethal systemic infection) model. Details: species or system mice. Here is the method:
Two pneumococcal infection models developed previously in our lab ([Le et al., 2015]) were used to assess the therapeutic efficacy of peptides in vivo. The systemic infection model was used to mimic pneumococcal bacteremia in humans and the pneumococcal pneumonia model was used to mimic pneumococcal pneumonia in humans. A highly virulent strain was used in both the models. The bacterial isolate was grown overnight on Columbia agar with 5% sheep blood at 37 °C under 5% CO2. The bacterial suspension was adjusted to OD625 0.08-0.1 (1 ∼ 2 × 10^8 CFU/ml). Mice tested for lethal systemic infection were inoculated with 1.5 × 10^2 CFU/mouse (100 μl) via IP route. Mice used to assess the Pneumococcal pneumonia model were inoculated with pneumococcal cells of 5 × 10^3 CFU/mouse (50 μl) via the intrathoracic route.
After 1 hr of inoculation, Mice receiving treatment were randomized and divided into six groups. RN7-IN10 and RN7-IN8 were tested at three different doses for each (5 mg/kg, 10 mg/kg and 20 mg/kg) using a group of 10 mice. Graded doses of ceftriaxone (5 mg/kg, 10 mg/kg, […], 40 mg/kg and 80 mg/kg) were also tested to assess the in vivo antibacterial activity of this antibiotic. Only mice injected with PBS were served as uninfected control. Mice injected with bacterial inoculum were used as untreated control group and given sterile distilled water only. Survival of mice was documented for seven days or until death. After seven days, the experiment was ended, the blood and homogenates of the five major organs (kidney, brain, spleen, liver and lung) of the surviving mice were plated on Columbia agar with 5% sheep blood, to detect the presence of pneumococcal cells. […]

The subject of experiment [3] is Resistant S. pneumoniae. Conditions: incubation with resistant S. pneumoniae; ref Jindal et al., 2015; cited from earlier work.
For experiment [4], the system named is S. pneumoniae. Nature of the experiment: ATP efflux assay. Type of experiment: cell-based, Streptococcus pneumoniae. Conditions: peptides 125 µg/ml (RN7-IN7 500 µg/ml); for ATP released, Average 1hr / ATP released, Average 2hr / ATP released, Average 3hr: raw data sheet, mean of 3. Here is the method:
The amount of ATP released from pneumococcal cells incubated with hybrid peptides was measured as described previously, with a slight modification ([Tanida et al., 2006]). The ATP determination kit (Molecular Probes, Eugene, OR, USA) was used to measure the amount of ATP released based on the luciferin/luciferase method according to the manufacturer’s instructions. Briefly, S. pneumoniae were grown overnight on Columbia agar with 5% sheep blood. Bacterial suspensions were spectrophotometrically adjusted to (1 × 10^7 CFU/ml) and incubated with hybrid peptides RN7-IN10, RN7-IN9, RN7-IN8 and RN7-IN6 at 125 µg/ml and with RN7-IN7 at 500 µg/ml. The amount of ATP released form the pneumococcal cells were measured at three time points 1, 2 and 3 h. The samples were then centrifuged at 5,000 rpm for 5 min, and ATP efflux was subsequently estimated using an ATP standard curve. Values were obtained from three independent experiments. Ceftriaxone and erythromycin were used as positive controls.

In experiment [5] the test system is S. pneumoniae. Nature of the experiment: Transmission electron microscopy (TEM) of treated cells. It is filed as cell-based, Streptococcus pneumoniae. Conditions: 10^8 CFU/ml in CAMHB; 8 × MIC (125 µg/ml; RN7-IN7 500 µg/ml); 1 h, 37 °C, 5% CO2. Here is the method:
Bacteria were prepared for TEM according to the guidelines of the Electron Microscopy Unit at the Faculty of Medicine, University of Malaya. S. pneumoniae cultures were grown overnight on Columbia agar with 5% sheep blood and suspended in cationally adjusted Mueller-Hinton broth (CAMHB) at 10^8 CFU/ml. […] Cells in cationally adjusted Mueller-Hinton broth (CAMHB) were used as an untreated control. After an hour of incubation, the pneumococcal cells were centrifuged to discard the medium, washed thrice with 10 mM phosphate buffer saline at pH 7.3 and fixed overnight in 4% (v/v) glutaraldehyde. All samples were washed twice with cacodylate buffer, incubated for 2 h in osmium tetroxide buffer (OsO4 1: 1 cacodylate), washed twice with cacodylate buffer and then incubated overnight in cacodylate buffer. All the samples were washed with distilled water twice and incubated for 10 min with uranyl acetate. After this, all samples were then washed twice with distilled water and dehydrated in an ascending series of ethanol: 35% (10 min), 50% (10 min), 70% (10 min), 95% (15 min), and thrice in 100% ethanol (15 min). After dehydration, samples were incubated with propylene oxide (15 min), propylene oxide 1:1 Epon (1 h), propylene oxide 1:3 Epon (2 h) and finally incubated overnight with Epon. All the samples were embedded in agar 100 resin at 37 °C for 5 hr and maintained at 60 °C until viewing. Reichert Ultramicrotome copper grids 3.05 mm (300 square mesh) (Agar Scientific, Essex, United Kingdom) were used to prepare Ultrathin sections. Ethanol-based uranyl acetate and lead citrate were used to stain the samples for 5 min. Transmission electron microscope (Leo Libra 120) was used to capture the images.

Experiment [6] has as its system Streptococcus pneumoniae. Conditions: 30 pneumococcal clinical isolates; earlier study; ref Jindal et al., 2015; cited from earlier work. The source says:
Table 1 Sequences and physicochemical properties of the template and hybrid AMPs. | column: MIC^a || One of the advantageous alternatives to today’s antibiotics is antimicrobial peptides (AMPs) ([Deslouches et al., 2013]; [Sánchez-Vásquez et al., 2013]). AMPs are synthesized by almost all living beings as the first line of defense in their immune system against microbial infection. Many aspects favor AMPs over traditional antibiotics: a broad range of antimicrobial activity against pathogenic micro-organisms (including viruses, parasites, bacteria, and fungi), microbial pathogens are less efficient in developing resistance against AMPs, as killing take place in a short contact time and AMPs c ...

[7] abbreviates: 1 × 10^7 CFU/ml, luciferin/luciferase, ATP standard curve, mean ± SD, three independent experiments.

Regarding `CO/N=C(\C(=O)N[C@@H]1C(=O)N2C(C(=O)O)=C(CSc3nc(=O)c(=O)[nH]n3C)CS[C@H]12)c1csc(N)n1` [ceftriaxone, reference compound], the “concentration inhibiting migration of genomic DNA through the agarose gel” value (“concentration inhibiting migration” below) in experiment [1] is more than 500 µg/mL. The “survival of infected mice up to seven days post-infection” value is on record as 10% in experiment [2] (1.5 × 10^2 CFU/mouse IP, treatment IP 5 mg/kg (peptides at 1 h, 12 h, 24 h post-infection), 10 mice); 30% in experiment [2] (1.5 × 10^2 CFU/mouse IP, treatment IP 10 mg/kg (peptides at 1 h, 12 h, 24 h post-infection), 10 mice); 40% in experiment [2] (1.5 × 10^2 CFU/mouse IP, treatment IP 20 mg/kg (peptides at 1 h, 12 h, 24 h post-infection), 10 mice); 70% in experiment [2] (treatment IP 40 mg/kg); 90% in experiment [2] (treatment IP 80 mg/kg). The “time to bactericidal activity / elimination of S. pneumoniae” value in experiment [3] is listed as more than 240 min. The “ATP released from pneumococcal cells after 1 h” value (“ATP released … after 1 h” below) in experiment [4] (setting [7]) is given as 5.24 ± 1.43 pM. The “ATP released, Average 1hr” value in experiment [4] turned out to be 5.248 pM. In addition, in experiment [4], the “ATP released, Average 2hr” value is 3.522 pM. For the same compound, in experiment [4], the “ATP released, Average 3hr” value came out at 3.119 pM.

Take `CC[C@H]1OC(=O)[C@H](C)[C@@H](O[C@H]2C[C@@](C)(OC)[C@@H](O)[C@H](C)O2)[C@H](C)[C@@H](O[C@@H]2O[C@H](C)C[C@H](N(C)C)[C@H]2O)[C@](C)(O)C[C@@H](C)C(=O)[C@H](C)[C@@H](O)[C@]1(C)O` [erythromycin, reference compound]: the “concentration inhibiting migration” value in experiment [1] was more than 500 µg/mL. Besides, the “ATP released … after 1 h” value in experiment [4] (setting [7]) is 0.49 ± 0.004 pM. In experiment [4], the “ATP released, Average 1hr” value is given as 0.4933 pM; the “ATP released, Average 2hr” value came out at 0.4736 pM; the “ATP released, Average 3hr” value stood at 0.3124 pM.

On to “FLGGLIKPWWPWRR-NH2 [RN7-IN7, hybrid peptide of ranalexin (residues 1-7) and indolicidin (residues 7-13)]”, for which the “TEM: detachment of cell wall from cell membrane” value in experiment [5] is “partial disconnection of the cell wall from the cell membrane”. In addition, the “MIC, minimum inhibitory concentration” value in experiment [6] is 62.5 µg/mL. Further, in experiment [4] (setting [7]), the “ATP released … after 1 h” value worked out at 22.35 ± 0.9 pM and the “ATP released from pneumococcal cells after 3 h” value was determined as 13.02 ± 2.26 pM.

For “FLGGLIKIVPAMICAVTKKC-OH [Ranalexin, natural template antimicrobial peptide]”, in experiment [6], the “MIC, minimum inhibitory concentration” value was 62.5 µg/mL.

With “ILPWKWPWWPWRR-NH2 [Indolicidin, natural template (parent) antimicrobial peptide]”, the “concentration inhibiting migration” value in experiment [1] was determined as 62.5 µg/mL. Moreover, in experiment [6], the “MIC, minimum inhibitory concentration” value was 15.62 to 31.25 µg/mL.
